Test results published in PubChem BioAssay (NCI).
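In this assay, cells in 96-well plates receive the compound at five concentrations for 48 hours. Endpoints are linearly interpolated between the surrounding concentrations. TGI: total growth inhibition.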

How the values were obtained:
Assay in all cases: inhibition of tumour cell growth, NCI panel, 48 h
UACC-62 melanoma = system: UACC-62 melanoma
A549 NSCLC = system: A549 NSCLC
HS 578T breast = system: HS 578T breast
COLO 205 colon = system: COLO 205 colon
T-47D breast = system: T-47D breast
MALME-3M melanoma = system: MALME-3M melanoma
SK-MEL-5 melanoma = system: SK-MEL-5 melanoma
HCT-15 colon = system: HCT-15 colon
RXF 393 renal = system: RXF 393 renal
UO-31 renal = system: UO-31 renal
SK-MEL-28 melanoma = system: SK-MEL-28 melanoma
HOP-92 NSCLC = system: HOP-92 NSCLC
TK-10 renal = system: TK-10 renal
NCI-H226 lung = system: NCI-H226 lung
RPMI-8226 leukemia = system: RPMI-8226 leukemia
SW-620 colon = system: SW-620 colon
SF-295 CNS = system: SF-295 CNS
UACC-257 melanoma = system: UACC-257 melanoma
SR leukemia = system: SR leukemia
BT-549 breast = system: BT-549 breast
HT29 colon = system: HT29 colon
SK-MEL-2 melanoma = system: SK-MEL-2 melanoma
KM12 colon = system: KM12 colon
EKVX NSCLC = system: EKVX NSCLC
A498 renal = system: A498 renal
SF-268 CNS = system: SF-268 CNS
LOX IMVI melanoma = system: LOX IMVI melanoma
CAKI-1 renal = system: CAKI-1 renal
DU-145 prostate = system: DU-145 prostate
HCT-116 colon = system: HCT-116 colon
ACHN renal = system: ACHN renal
NCI-H460 lung = system: NCI-H460 lung
NCI-H23 lung = system: NCI-H23 lung
CCRF-CEM leukemia = system: CCRF-CEM leukemia
SNB-75 CNS = system: SNB-75 CNS
HOP-62 NSCLC = system: HOP-62 NSCLC
HL-60(TB) leukemia = system: HL-60(TB) leukemia
HCC-2998 colon = system: HCC-2998 colon
OVCAR-5 ovarian = system: OVCAR-5 ovarian
K-562 leukemia = system: K-562 leukemia
M14 melanoma = system: M14 melanoma
IGROV1 ovarian = system: IGROV1 ovarian
MDA-MB-231 breast = system: MDA-MB-231 breast
MOLT-4 leukemia = system: MOLT-4 leukemia
OVCAR-3 ovarian = system: OVCAR-3 ovarian
SF-539 CNS = system: SF-539 CNS
MDA-MB-435 = system: MDA-MB-435
NCI/ADR-RES ovarian = system: NCI/ADR-RES ovarian
MCF7 breast = system: MCF7 breast
SN12C renal = system: SN12C renal
OVCAR-8 ovarian = system: OVCAR-8 ovarian
OVCAR-4 ovarian = system: OVCAR-4 ovarian
SK-OV-3 ovarian = system: SK-OV-3 ovarian
NCI-H522 lung = system: NCI-H522 lung
MDA-N = system: MDA-N
786-0 renal = system: 786-0 renal
U251 CNS = system: U251 CNS
PC-3 prostate = system: PC-3 prostate
SNB-19 CNS = system: SNB-19 CNS

CC(=O)NCCC1CN(C(=O)/C=C\I)c2ccccc21 (stereo not drawn)
TGI (UACC-62 melanoma): 28.3 µM
TGI (A549 NSCLC): 31.4 µM
TGI (HS 578T breast): 67.6 µM
TGI (COLO 205 colon): 23.9 µM
TGI (T-47D breast): 37.6 µM
TGI (MALME-3M melanoma): 28.5 µM
TGI (SK-MEL-5 melanoma): 16 µM
TGI (HCT-15 colon): 22.1 µM
TGI (RXF 393 renal): 26.3 µM
TGI (UO-31 renal): 18.8 µM
TGI (SK-MEL-28 melanoma): 31.6 µM
TGI (HOP-92 NSCLC): 46.3 µM
TGI (TK-10 renal): 19.5 µM
TGI (NCI-H226 lung): 27.6 µM
TGI (RPMI-8226 leukemia): 9.5 µM
TGI (SW-620 colon): 38.6 µM
TGI (SF-295 CNS): 31.5 µM
TGI (UACC-257 melanoma): 26.7 µM
TGI (SR leukemia): > 65.9 µM
TGI (BT-549 breast): 38.2 µM
TGI (HT29 colon): 24 µM
TGI (SK-MEL-2 melanoma): 29.7 µM
TGI (KM12 colon): 18.7 µM
TGI (EKVX NSCLC): 34 µM
TGI (A498 renal): 41.7 µM
TGI (SF-268 CNS): 31.6 µM
TGI (LOX IMVI melanoma): 11.1 µM
TGI (CAKI-1 renal): 3.32 µM
TGI (DU-145 prostate): 33.1 µM
TGI (HCT-116 colon): 28.8 µM
TGI (ACHN renal): 28.5 µM
TGI (NCI-H460 lung): 22.3 µM
TGI (NCI-H23 lung): 35.2 µM
TGI (CCRF-CEM leukemia): 13.3 µM
TGI (SNB-75 CNS): 33 µM
TGI (HOP-62 NSCLC): 23.3 µM
TGI (HL-60(TB) leukemia): 8.49 µM
TGI (HCC-2998 colon): 28.5 µM
TGI (OVCAR-5 ovarian): 30.2 µM
TGI (K-562 leukemia): > 40.3 µM
TGI (M14 melanoma): 24 µM
TGI (IGROV1 ovarian): 28.4 µM
TGI (MDA-MB-231 breast): 8.14 µM
TGI (MOLT-4 leukemia): 13.7 µM
TGI (OVCAR-3 ovarian): 28.2 µM
TGI (SF-539 CNS): 17.8 µM
TGI (MDA-MB-435): 30.8 µM
TGI (NCI/ADR-RES ovarian): > 61.7 µM
TGI (MCF7 breast): 13.4 µM
TGI (SN12C renal): 13.1 µM
TGI (OVCAR-8 ovarian): 35.8 µM
TGI (OVCAR-4 ovarian): 39 µM
TGI (SK-OV-3 ovarian): 34.9 µM
TGI (NCI-H522 lung): 3.29 µM
TGI (MDA-N): 26.3 µM
TGI (786-0 renal): 24.7 µM
TGI (U251 CNS): 25.9 µM
TGI (PC-3 prostate): 24 µM
TGI (SNB-19 CNS): 46.9 µM

NC(C(=O)O)c1cc(=O)[nH]o1 (stereo not drawn)
TGI (UACC-62 melanoma): > 100 µM
TGI (A549 NSCLC): > 100 µM
TGI (HS 578T breast): > 100 µM
TGI (COLO 205 colon): > 100 µM
TGI (T-47D breast): > 100 µM
TGI (MALME-3M melanoma): > 100 µM
TGI (SK-MEL-5 melanoma): > 100 µM
TGI (HCT-15 colon): > 100 µM
TGI (RXF 393 renal): > 100 µM
TGI (UO-31 renal): > 100 µM
TGI (SK-MEL-28 melanoma): > 100 µM
TGI (HOP-92 NSCLC): > 100 µM
TGI (TK-10 renal): > 100 µM
TGI (NCI-H226 lung): > 100 µM
TGI (RPMI-8226 leukemia): > 100 µM
TGI (SW-620 colon): > 100 µM
TGI (SF-295 CNS): > 100 µM
TGI (UACC-257 melanoma): > 100 µM
TGI (SR leukemia): > 100 µM
TGI (BT-549 breast): > 69.9 µM
TGI (HT29 colon): > 100 µM
TGI (SK-MEL-2 melanoma): > 100 µM
TGI (KM12 colon): > 100 µM
TGI (EKVX NSCLC): > 100 µM
TGI (A498 renal): > 100 µM
TGI (SF-268 CNS): > 100 µM
TGI (LOX IMVI melanoma): > 100 µM
TGI (CAKI-1 renal): > 100 µM
TGI (DU-145 prostate): > 100 µM
TGI (HCT-116 colon): > 100 µM
TGI (ACHN renal): > 100 µM
TGI (NCI-H460 lung): > 100 µM
TGI (NCI-H23 lung): > 100 µM
TGI (CCRF-CEM leukemia): > 100 µM
TGI (SNB-75 CNS): > 100 µM
TGI (HOP-62 NSCLC): > 100 µM
TGI (HL-60(TB) leukemia): > 100 µM
TGI (HCC-2998 colon): > 100 µM
TGI (OVCAR-5 ovarian): > 100 µM
TGI (K-562 leukemia): > 100 µM
TGI (M14 melanoma): > 100 µM
TGI (IGROV1 ovarian): > 100 µM
TGI (MDA-MB-231 breast): > 100 µM
TGI (MOLT-4 leukemia): > 100 µM
TGI (OVCAR-3 ovarian): > 100 µM
TGI (SF-539 CNS): > 100 µM
TGI (MDA-MB-435): > 100 µM
TGI (NCI/ADR-RES ovarian): > 100 µM
TGI (MCF7 breast): > 100 µM
TGI (SN12C renal): > 100 µM
TGI (OVCAR-8 ovarian): > 100 µM
TGI (OVCAR-4 ovarian): > 100 µM
TGI (SK-OV-3 ovarian): > 100 µM
TGI (NCI-H522 lung): > 100 µM
TGI (MDA-N): > 100 µM
TGI (786-0 renal): > 100 µM
TGI (U251 CNS): > 100 µM
TGI (PC-3 prostate): > 100 µM
TGI (SNB-19 CNS): > 100 µM
